Results on two molecules are retold here after US20210220367A1, “INHALABLE FORMULATION OF A SOLUTION CONTAINING GLYCOPYRROLATE AND OLODATEROL HYDROCHLORIDE” (priority 2020, published 2021).

This data set is described as follows: Aerodynamic particle size distribution, Next Generation Pharmaceutical Impactor (NGI). The format is physicochemical. As to conditions: sample 2 (GB 1.13 mg/ml; pH 3.0), soft mist inhaler, NGI 30 L/minute, RH 90%, HPLC per active. The method, then:
The aerodynamic particle size distribution was determined using a Next Generation Pharmaceutical Impactor (NGI). The soft mist inhaler was held close to the NGI inlet until no aerosol was visible. The flow rate of the NGI was set to 30 L/minute and was operated under ambient temperature and a relative humidity (RH) of 90%.
The solution of sample 2 was discharged into the NGI. Fractions of the dose were deposited at different stages of the NGI, in accordance with the particle size of the fraction. Each fraction was washed from the stage and analyzed using HPLC.
The particle size distribution was expressed in terms of mass median aerodynamic diameter (MMAD) and Geometric Standard Deviation (GSD). […] The sample is sample 2 as described in Example 4 (GB 1.13 mg/ml; pH 3.0). The aerodynamic particle size distribution of sample 2 was investigated by means of the original research device of TB-OH and a new generation of cascade impactor.

On to `COc1ccc(CC(C)(C)NC[C@H](O)c2cc(O)cc3c2OCC(=O)N3)cc1.Cl` [Olodaterol hydrochloride, 2H-1,4-Benzoxazin-3H(4H)-one, 6-hydroxy-8-[(1R)-1-hydroxy-2-[[2-(4-methoxyphenyl)-1,1-dimethylethyl]-amino]ethyl], monohydrochloride], for which the GSD was 1.79 and the “MMAD (μm)” value was 4.01 μm.

As for “(3RS)-3-[(2SR)-(2-cyclopentyl-2-hydroxy-2-penylacetyl)oxy]-1,1-dimethlypyrrolidinium bromide [Glycopyrrolate]”, the GSD is listed as 1.77 and the “MMAD (μm)” value was found to be 4.05 μm.
